Measurements taken from patent US8937089B2, “Synergistic mixtures of anthranilamide invertebrate pest control agents” (priority 2004, dated 2015).

Tests used:
Assay in all cases: whole plant or invertebrate
Format in all cases: in vivo
[1] = system: western flower thrip (Frankliniella occidentalis Pergande); conditions: single compound, spray, 7 days
Description: (§1) Test compounds were formulated using a solution containing 10% acetone, 90% water and 300 ppm X-77® Spreader Lo-Foam Formula non-ionic surfactant containing alkylarylpolyoxyethylene, free fatty acids, glycols and 2-propanol (Loveland Industries, Inc.) to provide the desired concentration in ppm. Formulated test solutions were then applied in 1 mL volumes through a SUJ2 atomizer nozzle with 1/8 JJ custom body (Spraying Systems Co.) positioned 1.27 cm (0.5 inches) above the top of each test unit.
For evaluating control of the western flower thrip (Frankliniella occidentalis Pergande) through contact and/or systemic means, each test unit consisted of a small open container with a 5- to 7-day-old bean (var. Soleil) plant inside.
Test solutions were formulated and sprayed with 3 replications as described for Test A. After spraying, the test units were allowed to dry for 1 hour, 22 to 27 adult thrips were added to each unit and then a black, screened cap was placed on top. The test units were held for 7 days at 25° C. and 45-55% relative humidity.

[2] = system: cotton melon aphid (Aphis gossypii Glover)
Description: as §1
(§2) For evaluating control of cotton melon aphid (Aphis gossypii Glover) through contact and/or systemic means, each test unit consisted of a small open container with a 6- to 7-day-old cotton plant inside. This was pre-infested by placing on a leaf of the test plant 30 to 40 aphids on a piece of leaf excised from a culture plant (cut-leaf method). The larvae moved onto the test plant as the leaf piece desiccated. After pre-infestation, the soil of the test unit was covered with a layer of sand.
(§3) Test compounds were formulated and sprayed as described for Test A. The applications were replicated three times. After spraying of the formulated test compounds, each test unit was allowed to dry for 1 hour and then a black, screened cap was placed on top. The test units were held for 6 days in a growth chamber at 19-21° C. and 50-70% relative humidity.

[3] = system: potato leafhopper (Empoasca fabae Harris); conditions: alone
Description: as §1
[…] White sand was added to the top of the soil, and one of the primary leaves was excised prior to application. Test compounds were formulated and sprayed with 3 replications as described for Test A. After spraying, the test units were allowed to dry for 1 hour before they were infested with 5 potato leafhoppers (18- to 21-day-old adults). A black, screened cap was placed on the top of each container. The test units were held for 6 days in a growth chamber at 19-21° C. and 50-70% relative humidity.

[4] = system: corn planthopper (Peregrines maidis); conditions: Corn Plant Hopper; for mortality at 100 ppm: rate 100 ppm; for mortality at 1000 ppm: rate 1000 ppm
Description: as §1
For evaluating control of corn planthopper (Peregrines maidis) through contact and/or systemic means, each test unit consisted of a small open cylindrical container with a 3- to 4-day-old corn (maize) plant (spike) inside. White sand was added to the top of the soil prior to application. Test compounds were formulated and sprayed with 3 replications as described for Test A. After spraying, the test units were allowed to dry for 1 hour before they were post-infested with 10 to 20 corn planthoppers (18- to 20-day-old nymphs) by sprinkling them onto the sand with a salt shaker. A black, screened cap was placed on the top of each container. The test units were held for 6 days in a growth chamber at 19-21° C. and 50-70% relative humidity.

[5] = system: green peach aphid (Myzus persicae Sulzer); conditions: Green Peach Aphid; for mortality at 100 ppm: rate 100 ppm; for mortality at 1000 ppm: rate 1000 ppm
Description: as §1
as §2, with “green peach” for “cotton melon”, “(Myzus persicae Sulzer)” for “(Aphis gossypii Glover)”, “12-” for “6-”, “15-day-old radish” for “7-day-old cotton”
as §3, with “described in” for “described for”, “Test A,” for “Test A. The applications were”, “test compound,” for “test compounds,”

[6] = system: silverleaf whitefly (Bemisia argentifolii Bellows and Perring); conditions: Table 2B
Excerpt: For evaluating control of silverleaf whitefly (Bemisia argentifolii Bellows and Perring) through contact and/or systemic means, each test unit consisted of a small open container with a 12- to 14-day-old cotton plant inside. This was pre-infested by placing test units into cages infested with adult whiteflies so that oviposition on the cotton leaves could occur. The adults were removed from the plants with an air-blast nozzle, and the test units were capped. The test units were then stored 2 to 3 days before spraying.
as §1
The results for all experimental compositions in this test were replicated three times. After spraying of the formulated test composition, each test unit was allowed to dry for 1 hour and the cap removed. The test units were held for 13 days in a growth chamber at 28° C. and 50-70% relative humidity.

[7] = Frankliniella occidentalis, 168 h, rate 100 ppm, read-out: % mortality (obs)
[8] = Myzus persicae, in Raphanus sativus, read-out: % mortality (obs)

Molecule: COc1cccc(C(=O)NN(C(=O)c2cc(C)cc(C)c2)C(C)(C)C)c1C [Methoxyfenozide]
- mortality at 10 ppm ([1]; Frankliniella occidentalis, 168 h, rate 10 ppm, read-out: % mortality (obs)): 60%
- mortality at 100 ppm [1, 7]: 60%
- mortality at 500 ppm ([1]; Frankliniella occidentalis, 168 h, rate 500 ppm, read-out: % mortality (obs)): 60%
- mortality at 5 ppm ([2]; Aphis gossypii, rate 5 ppm, read-out: % mortality (obs)): 32%
- mortality at 50 ppm ([2]; Aphis gossypii, rate 50 ppm, read-out: % mortality (obs)): 54%
- mortality at 500 ppm ([2]; Aphis gossypii, rate 500 ppm, read-out: % mortality (obs)): 38%
- mortality at 0.08 ppm ([3]; Empoasca fabae, rate 0.08 ppm, read-out: % mortality (obs)): 13%
- mortality at 0.4 ppm ([3]; Empoasca fabae, rate 0.4 ppm, read-out: % mortality (obs)): 13%
- mortality at 2 ppm ([3]; Empoasca fabae, rate 2 ppm, read-out: % mortality (obs)): 20%
- mortality at 10 ppm ([4]; rate 10 ppm, read-out: % mortality (obs)): 7%
- mortality at 100 ppm ([4]; read-out: % mortality (obs)): 2%
- mortality at 1000 ppm ([4]; read-out: % mortality (obs)): 10%
- mortality at 10 ppm ([5]; Myzus persicae, in Raphanus sativus, rate 10 ppm, read-out: % mortality (obs)): 7%
- mortality at 100 ppm [5, 8]: 17%
- mortality at 1000 ppm [5, 8]: 6%
- mortality at 2 ppm ([6]; Bemisia argentifolii, in Gossypium hirsutum, rate 2 ppm, read-out: % mortality (obs)): 1%
- mortality at 10 ppm ([6]; Bemisia argentifolii, in Gossypium hirsutum, rate 10 ppm, read-out: % mortality (obs)): 2%
- mortality at 50 ppm ([6]; Bemisia argentifolii, in Gossypium hirsutum, rate 50 ppm, read-out: % mortality (obs)): 1%

Molecule: CCN(Cc1ccc(Cl)nc1)/C(=C/[N+](=O)[O-])NC [Nitenpyram]
- % mortality (obs) ([1]; rate 5 ppm): 20%
- % mortality (obs) ([1]; rate 50 ppm): 50%
- % mortality (obs) ([1]; rate 500 ppm): 80%
- % mortality (obs) ([2]; rate 0.2 ppm): 29%
- % mortality (obs) ([2]; rate 0.4 ppm): 49%
- % mortality (obs) ([2]; rate 0.6 ppm): 71%
- % mortality (obs) ([3]; rate 0.3 ppm): 7%
- % mortality (obs) ([3]; rate 0.4 ppm): 73%
- % mortality (obs) ([3]; rate 0.5 ppm): 33%
- % mortality (obs) ([4]; rate 0.1 ppm): 27%
- % mortality (obs) ([4]; rate 0.2 ppm): 100%
- % mortality (obs) ([4]; rate 0.3 ppm): 100%
- % mortality (obs) ([5]; rate 0.2 ppm): 7%
- % mortality (obs) ([5]; rate 0.4 ppm): 17%
- % mortality (obs) ([5]; rate 0.6 ppm): 40%
- % mortality (obs) ([6]; rate 20 ppm): 53%
- % mortality (obs) ([6]; rate 30 ppm): 84%
- % mortality (obs) ([6]; rate 40 ppm): 85%

Molecule: CCc1ccc(C(=O)NN(C(=O)c2cc(C)cc(C)c2)C(C)(C)C)cc1 [Tebufenozide]
- mortality at 100 ppm [1, 7]: 70%
- mortality at 1000 ppm ([1]; Frankliniella occidentalis, 168 h, rate 1000 ppm, read-out: % mortality (obs)): 60%
- mortality at 3000 ppm ([1]; Frankliniella occidentalis, 168 h, rate 3000 ppm, read-out: % mortality (obs)): 60%
- mortality at 0.5 ppm ([2]; Aphis gossypii, rate 0.5 ppm, read-out: % mortality (obs)): 21%
- mortality at 1.5 ppm ([2]; Aphis gossypii, rate 1.5 ppm, read-out: % mortality (obs)): 37%
- mortality at 3 ppm ([2]; Aphis gossypii, rate 3 ppm, read-out: % mortality (obs)): 22%
- mortality at 3 ppm ([3]; Empoasca fabae, rate 3 ppm, read-out: % mortality (obs)): 40%
- mortality at 4 ppm ([3]; Empoasca fabae, rate 4 ppm, read-out: % mortality (obs)): 27%
- mortality at 5 ppm ([3]; Empoasca fabae, rate 5 ppm, read-out: % mortality (obs)): 20%
- mortality at 100 ppm ([4]; read-out: % mortality (obs)): 12%
- mortality at 1000 ppm ([4]; read-out: % mortality (obs)): 16%
- mortality at 3000 ppm ([4]; rate 3000 ppm, read-out: % mortality (obs)): 12%
- mortality at 100 ppm [5, 8]: 8%
- mortality at 1000 ppm [5, 8]: 7%
- mortality at 3000 ppm ([5]; Myzus persicae, in Raphanus sativus, rate 3000 ppm, read-out: % mortality (obs)): 9%
- mortality at 100 ppm ([6]; Bemisia argentifolii, in Gossypium hirsutum, rate 100 ppm, read-out: % mortality (obs)): 2%
- mortality at 1000 ppm ([6]; Bemisia argentifolii, in Gossypium hirsutum, rate 1000 ppm, read-out: % mortality (obs)): 6%
- mortality at 3000 ppm ([6]; Bemisia argentifolii, in Gossypium hirsutum, rate 3000 ppm, read-out: % mortality (obs)): 7%

Molecule: CS/C(C)=N\OC(=O)N(C)SN(C)C(=O)O/N=C(\C)SC [Thiodicarb]
- % mortality (obs) ([1]; rate 20 ppm): 60%
- % mortality (obs) ([1]; rate 200 ppm): 80%
- % mortality (obs) ([2]; rate 3 ppm): 49%
- % mortality (obs) ([2]; rate 10 ppm): 32%
- % mortality (obs) ([2]; rate 30 ppm): 69%
- % mortality (obs) ([3]; rate 0.08 ppm): 0%
- % mortality (obs) ([3]; rate 0.16 ppm): 20%
- % mortality (obs) ([3]; rate 0.4 ppm): 20%
- % mortality (obs) ([4]; rate 0.08 ppm): 2%
- % mortality (obs) ([4]; rate 0.16 ppm): 6%
- % mortality (obs) ([4]; rate 0.4 ppm): 7%
- % mortality (obs) ([5]; rate 20 ppm): 10%
- % mortality (obs) ([5]; rate 150 ppm): 17%
- % mortality (obs) ([5]; rate 900 ppm): 98%
- % mortality (obs) ([6]; rate 100 ppm): 1%
- % mortality (obs) ([6]; rate 1000 ppm): 0%
- % mortality (obs) ([6]; rate 3000 ppm): 6%

Molecule: Acetamiprid
- % mortality (obs) ([1]; rate 1 ppm): 70%
- % mortality (obs) ([1]; rate 100 ppm): 90%
- % mortality (obs) ([1]; rate 3000 ppm): 100%
- % mortality (obs) ([2]; rate 0.02 ppm): 42%
- % mortality (obs) ([2]; rate 0.08 ppm): 67%
- % mortality (obs) ([2]; rate 0.4 ppm): 100%
- % mortality (obs) ([3]; rate 1 ppm): 27%
- % mortality (obs) ([3]; rate 4 ppm): 60%
- % mortality (obs) ([3]; rate 12 ppm): 87%
- % mortality (obs) ([4]; rate 0.3 ppm): 43%
- % mortality (obs) ([4]; rate 0.4 ppm): 85%
- % mortality (obs) ([4]; rate 0.5 ppm): 100%
- % mortality (obs) ([5]; rate 0.2 ppm): 27%
- % mortality (obs) ([5]; rate 0.4 ppm): 52%
- % mortality (obs) ([5]; rate 0.6 ppm): 46%
- % mortality (obs) ([6]; rate 1 ppm): 3%
- % mortality (obs) ([6]; rate 5 ppm): 45%
- % mortality (obs) ([6]; rate 20 ppm): 83%

Molecule: Cartap
- % mortality (obs) ([1]; rate 1 ppm): 40%
- % mortality (obs) ([1]; rate 1000 ppm): 100%
- % mortality (obs) ([1]; rate 3000 ppm): 100%
- % mortality (obs) ([2]; rate 0.2 ppm): 29%
- % mortality (obs) ([2]; rate 2 ppm): 34%
- % mortality (obs) ([2]; rate 200 ppm): 83%
- % mortality (obs) ([3]; rate 0.1 ppm): 20%
- % mortality (obs) ([3]; rate 1 ppm): 73%
- % mortality (obs) ([3]; rate 10 ppm): 100%
- % mortality (obs) ([4]; rate 0.3 ppm): 100%
- % mortality (obs) ([4]; rate 3 ppm): 100%
- % mortality (obs) ([4]; rate 30 ppm): 100%
- % mortality (obs) ([5]; rate 0.2 ppm): 11%
- % mortality (obs) ([5]; rate 0.4 ppm): 26%
- % mortality (obs) ([5]; rate 0.6 ppm): 17%
- % mortality (obs) ([6]; rate 0.1 ppm): 0%
- % mortality (obs) ([6]; rate 0.2 ppm): 0%
- % mortality (obs) ([6]; rate 0.5 ppm): 0%
